Measurements from PubChem BioAssay AID248 (DTP/NCI, 2004).
Inconclusive results and toxic doses are left out.

Test system: L1210 leukemia ip in BDF1 mice, survival T/C
Assay: NCI In Vivo Anticancer Drug Screen. Data for tumor model L1210 Leukemia (intraperitoneal) in B6D2F1 (BDF1) mice
Details: endpoint: mean survival time, higher = longer survival
How it was run: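 Value reflects the ratio of survival in compound-treated mice to survival in vehicle-treated controls, with both groups carrying the same transplanted tumor.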

[1] = dose: 100.0 mg/kg/injection, schedule: Q01DX001 (ip), vehicle: saline
[2] = dose: 200.0 mg/kg/injection, schedule: Q01DX001 (ip), vehicle: saline
[3] = dose: 400.0 mg/kg/injection, schedule: Q01DX001 (ip), vehicle: saline
[4] = dose: 100.0 mg/kg/injection, schedule: Q04DX002 (ip), vehicle: Klucel (hydroxypropylcellulose) (HPC)

## CC(=O)C12OC1(C)CC1C3CC=C4CC(O)CCC4(C)C3CCC12C (configuration not stated)
dose: 100.0 mg/kg/injection, schedule: Q01DX009 (sc), vehicle: steriod suspending solution
  T/C: 100 % of control
dose: 100.0 mg/kg/injection, schedule: Q04DX003 (sc), vehicle: steriod suspending solution
  T/C: 108 % of control
dose: 200.0 mg/kg/injection, schedule: Q01DX009 (sc), vehicle: steriod suspending solution
  T/C: 109 % of control
dose: 200.0 mg/kg/injection, schedule: Q04DX003 (sc), vehicle: steriod suspending solution
  T/C: 122 % of control
dose: 400.0 mg/kg/injection, schedule: Q01DX009 (sc), vehicle: steriod suspending solution
  T/C: 98 % of control
dose: 400.0 mg/kg/injection, schedule: Q04DX003 (sc), vehicle: steriod suspending solution
  T/C: 103 % of control

## CN(C)CCCn1c2nc(=O)[nH]c(=O)c-2nc2cc(Cl)c(Cl)cc21
dose: 4.0 mg/kg/injection, schedule: Q01DX Z (ip), vehicle: methylcellulose (MC)
  T/C: 117 % of control

## O=[N+]([O-])c1ccc(NC(CO)C(O)C(O)C(O)CO)c([N+](=O)[O-])c1 (configuration not stated)
[1]
  T/C: 102 % of control
[2]
  T/C: 98 % of control
[3]
  T/C: 98 % of control

## NC(=O)Nc1cccc(Cl)c1
dose: 100.0 mg/kg/injection, schedule: Q04DX002 (ip), vehicle: gum acacia
  T/C: 106 % of control
dose: 200.0 mg/kg/injection, schedule: Q04DX002 (ip), vehicle: gum acacia
  T/C: 98 % of control
dose: 400.0 mg/kg/injection, schedule: Q04DX002 (ip), vehicle: gum acacia
  T/C: 106 % of control

## CCC(=O)c1cc(OC)cc(OC)c1
dose: 100.0 mg/kg/injection, schedule: Q01DX009 (ip), vehicle: saline
  T/C: 105 % of control
dose: 200.0 mg/kg/injection, schedule: Q01DX009 (ip), vehicle: saline
  T/C: 105 % of control
dose: 400.0 mg/kg/injection, schedule: Q01DX009 (ip), vehicle: saline
  T/C: 112 % of control

## CCOC(=O)C(N)=S
dose: 100.0 mg/kg/injection, schedule: Q04DX003 (ip), vehicle: saline
  T/C: 98 % of control
dose: 200.0 mg/kg/injection, schedule: Q04DX003 (ip), vehicle: saline
  T/C: 96 % of control
dose: 400.0 mg/kg/injection, schedule: Q04DX003 (ip), vehicle: saline
  T/C: 88 % of control

## CCCCCC#CC(=O)OCCC
[4]
  T/C: 97 % of control
dose: 200.0 mg/kg/injection, schedule: Q04DX002 (ip), vehicle: Klucel (hydroxypropylcellulose) (HPC)
  T/C: 101 % of control
dose: 400.0 mg/kg/injection, schedule: Q04DX002 (ip), vehicle: Klucel (hydroxypropylcellulose) (HPC)
  T/C: 101 % of control

## Cn1c(=O)c(Br)c(N)c2ccccc21
dose: 100.0 mg/kg/injection, schedule: Q01DX001 (ip), vehicle: other
  T/C: 101 % of control
dose: 200.0 mg/kg/injection, schedule: Q01DX001 (ip), vehicle: other
  T/C: 101 % of control
dose: 400.0 mg/kg/injection, schedule: Q01DX001 (ip), vehicle: other
  T/C: 101 % of control

## O=[N+]([O-])c1cc(S(=O)(=O)F)cc(Cl)c1S
dose: 100.0 mg/kg/injection, schedule: Q04DX003 (ip), vehicle: Klucel (hydroxypropylcellulose) (HPC)
  T/C: 98 % of control
dose: 200.0 mg/kg/injection, schedule: Q04DX003 (ip), vehicle: Klucel (hydroxypropylcellulose) (HPC)
  T/C: 102 % of control

## c1ccc(N=N/C(=N/Nc2ccccc2)c2ccccc2)cc1
dose: 50.0 mg/kg/injection, schedule: Q01DX009 (ip), vehicle: saline with Tween-80
  T/C: 90 % of control
dose: 100.0 mg/kg/injection, schedule: Q01DX009 (ip), vehicle: saline with Tween-80
  T/C: 96 % of control

## COc1ccc(OC)c(NC(=O)c2ccc(F)cc2)c1
dose: 100.0 mg/kg/injection, schedule: Q01DX009 (ip), vehicle: Klucel (hydroxypropylcellulose) (HPC)
  T/C: 98 % of control
dose: 200.0 mg/kg/injection, schedule: Q01DX009 (ip), vehicle: Klucel (hydroxypropylcellulose) (HPC)
  T/C: 107 % of control
dose: 400.0 mg/kg/injection, schedule: Q01DX009 (ip), vehicle: Klucel (hydroxypropylcellulose) (HPC)
  T/C: 96 % of control

## COc1cc(Cn2cccc2/C=C(\C#N)C(N)=O)cc(OC)c1
dose: 25.0 mg/kg/injection, schedule: Q04DX002 (ip), vehicle: Klucel (hydroxypropylcellulose) (HPC)
  T/C: 94 % of control
dose: 50.0 mg/kg/injection, schedule: Q04DX002 (ip), vehicle: Klucel (hydroxypropylcellulose) (HPC)
  T/C: 97 % of control
[4]
  T/C: 105 % of control

## C/C=C(\Br)C(=O)N1CCCCC1
[1]
  T/C: 94 % of control
[2]
  T/C: 100 % of control
[3]
  T/C: 95 % of control

## O=C1c2ccccc2C(=O)N1c1ncc2ccccc2n1
dose: 100.0 mg/kg/injection, schedule: Q01DX001 (ip), vehicle: saline with Tween-80
  T/C: 101 % of control
dose: 200.0 mg/kg/injection, schedule: Q01DX001 (ip), vehicle: saline with Tween-80
  T/C: 92 % of control
dose: 400.0 mg/kg/injection, schedule: Q01DX001 (ip), vehicle: saline with Tween-80
  T/C: 95 % of control

## Oc1ccc(Cl)cc1/C=N\NC(=S)Nc1ccc2cn[nH]c2c1
dose: 50.0 mg/kg/injection, schedule: Q01DX001 (ip), vehicle: carboxymethylcellulose (CMC)
  T/C: 102 % of control
dose: 100.0 mg/kg/injection, schedule: Q01DX001 (ip), vehicle: carboxymethylcellulose (CMC)
  T/C: 86 % of control
dose: 200.0 mg/kg/injection, schedule: Q01DX001 (ip), vehicle: carboxymethylcellulose (CMC)
  T/C: 102 % of control

## CCCCCCC(=O)/C=C/c1ccccc1Cl
dose: 100.0 mg/kg/injection, schedule: Q01DX009 (ip), vehicle: other
  T/C: 98 % of control
dose: 200.0 mg/kg/injection, schedule: Q01DX009 (ip), vehicle: other
  T/C: 92 % of control
dose: 400.0 mg/kg/injection, schedule: Q01DX009 (ip), vehicle: other
  T/C: 93 % of control
